In patent US8993622B2, “Antiviral compounds” (Eirium AB, priority 2010, dated 2015):
Where two headings read alike, the source gives them in different places.

What was measured:
[1] = test system: Ad5; assay: microbe, parasite or virus in culture; type: cell-based, human adenovirus
[2] = test system: coxsackievirus A24 variant (CVA24v); assay: Coxsackievirus fluorescent focus assay in HCE cells; type: cell-based; design: key: +++: No visible fluorescence was observed; ++: some infected cells were detected; details: 18 h
Protocol: Approximately 2×10^5 human corneal epithelial (HCE) cells were plated in 24-well plates the day prior infection. On the day of infection the media was removed and was replaced with media containing 70 virus particles of CVA24v per cell and serial dilutions of compound 35j, ranging from 50- to 6.25 μM. After 18 h of incubation at 37° C. in 5% CO2, the cells were fixed using ice-cold 100% methanol for 5 min. Thereafter, the cells were incubated with a monoclonal mouse anti-VP1 structural protein antibody (clone 5-D8/1, DakoCytomation) diluted 1:200 in PBS, for 1 h in RT. The cells were then washed with PBS and incubated with FITC labeled anti-mouse secondary antibody (DakoCytomation), diluted 1:100 for 1 h, RT, in the dark. Further, unbound antibody was washed away in PBS and the cells were examined in fluorescent microscope.

[3] = test system: cells; assay: Cellular toxicity of select compounds (% dead cells, CC50); type: cell-based; details: 24 h
[4] = as above; type: cell-based; details: conclusions

Molecule `O=C(Nc1cc(F)c(F)cc1C(=O)Nc1ccccc1C(=O)O)c1ccccc1F` [Compound 35j, 2-[4,5-difluoro-2-(2-fluorobenzoylamino)-benzoylamino]benzoic acid] has a toxicity/activity selectivity index ([1]; CC50/EC50) of 890, an EC50 ([1]; Human adenovirus sp., A549, read-out: EC50-value) of 300 nM and an EC50 ([1]; unidentified adenovirus, A549) of 270 nM. The inhibition at 5 µM ([1]; unidentified adenovirus, A549, read-out: % Inh. at 5 μM) was 94 ± 3%, the inhibition at 15 µM ([1]; unidentified adenovirus, A549, read-out: % Inh. at 15 μM) was 93 ± 2% and the “Relative inhibition of CVA24v” value ([2]; 6.25 μM) was “++”. The “Relative inhibition of CVA24v” value ([2]; 12.5 μM) was “++”, the “Relative inhibition of CVA24v” value ([2]; 25 μM) was “+++” and the “Relative inhibition of CVA24v” value ([2]; 50 μM) was “+++”. The “Toxicity at 30 μM (% dead cells after 24 h)” value ([3]; 30 μM) was 6 ± 4%, the “Toxicity at 60 μM (% dead cells after 24 h)” value ([3]; 60 μM) was 16 ± 9% and the CC50 [4] was 240000 nM.
